According to patent US20230047208A1, “RNA Splicing Modulation” (The General Hospital Corporation, priority 2020, published 2023):

Assays:
ELP1 exon 20 [1] = conditions: cited from earlier work
ELP1 exon 20 [2] = conditions: cited from earlier work; remark: listed apart in the source
CFTR channel = experiment: CFTR functional assessment, short circuit current (Ussing chamber) in CFBE cells stably expressing c.2988G>A; format: cell-based, human; conditions: CFBE c.2988G>A, Compound (I) treated cells, 10 μM ivacaftor acute, apical side
Description: WT CFTR-EMG-i14-i18, CFTR-EMG-i14-i18 harboring c.2988G>A, Flp-In-CFBE, and Flp-In-293 cells stably expressing WT-EMG and c.2988G>A EMG were generated. Both Flpin-293 and Flp-In-CFBE cells lack endogenous CFTR expression (CFBE41o-) and contain a single Flp recombinase target site. Co-transfection of EMG plasmid with pOG44 (a plasmid encoding Flp recombinase) allowed for genomic integration at the FRT site. Hygromycin was used for stable cell selection.
Assessment of CFTR channel function and response to Compound (I) was performed in CFBEs stably expressing c.2988G>A. Briefly, CFBE stable cell lines were plated on snapwell filters. When transepithelial resistance reached ˜200Ω (˜ 5-7 days) as measured using Voltammeter (Physiologic Instruments), cells were treated with Compound (I) at varying doses (0.3 μM to 10 μM) for next 3 days. Filters were mounted in Ussing chambers (Physiological Instruments). A high chloride solution was added to the basolateral chamber and a low chloride solution was added to the apical chamber. After equilibration of currents, 10 μM forskolin (Selleckchem) was added to the basolateral side to activate CFTR channels via cAMP signaling. Currents were allowed to plateau, followed by acute addition of 10 μM ivacaftor at apical side for CFTR potentiation (Selleckchem). Inhibition of CFTR was performed using 10 μM Inh-172 (Selleckchem) added to the apical chamber.
The ability of Compound (I) to rescue chloride channel function was also assessed. CF bronchial epithelial (CFBE) cell lines was generated to stably express the splicing mutation c.2988G>A. Cells were grown in monolayers on filters and treated with increasing doses of Compound (I) (0.3 μM-10 μM) or DMSO for 3 days. Chloride channel function was assessed by measuring short circuit current (Isc) on treated CFBE cells. Forskolin was added to initiate CFTR channel activity via cAMP-mediated signaling, with further channel activation by Ivacaftor and inhibition with Inh-172, a CFTR-specific inhibitor (FIG. 9C, representative Isc tracing). CFTR-specific change in current (ΔIsc±SD) allows for measurement of chloride channel function (FIG. 9C). […] Significant recovery of CFTR function (˜3 fold) was observed following treatment with Compound (I) at 1, 3, 6, and 10 μM for 3 days, with a maximal increase in CFTR function achieved using 3 μM of Compound (I) (ΔIsc=37.168±4.32 μA/cm^2, FIG. 9C).

Compound | doses needed to achieve inclusion of Exon 20 in vivo (ELP1 exon 20 [1]) | Percent Spliced In (PSI) change for ELP1 exon 20 splicing (ELP1 exon 20 [2]; RNA sequencing after kinetin treatment) | additional exon-usage differences in response to kinetin (ELP1 exon 20 [2]; RNA sequencing) | usage differences that induced skipping of the middle exon (ELP1 exon 20 [2]; RNA sequencing) | usage differences that promoted inclusion of the middle exon (ELP1 exon 20 [2]; RNA sequencing) | improvement in CFTR function on acute addition of Ivacaftor (CFTR channel) [fold]
c1coc(CNc2ncnc3nc[nH]c23)c1 [kinetin, 6-furfurylaminopurine] | extremely high doses are necessary | 0.57 | 42 | 31 | 11 | –
CC(C)(C)c1cc(C(C)(C)C)c(NC(=O)c2c[nH]c3ccccc3c2=O)cc1O [Ivacaftor, reference compound] | – | – | – | – | – | ~2
